# Data: PMC7114135, “Interaction between the Antimalarial Drug Dispiro-Tetraoxanes and Human Serum Albumin: A Combined Study with Spectroscopic Methods and Computational Studies” (ACS Omega, 2020)
# Molecular target: T1, human serum albumin (HSA) (Homo sapiens, UniProt P02768)
# T1 construct: gene ALB; fatty-acid-free HSA (Sigma-Aldrich A3782)
# Test: intrinsic fluorescence quenching (modified Stern-Volmer, binding constant Kb, […] K), supported by UV-vis, time-resolved fluorescence and CD
# Details: read-out: Kb (L mol^-1) (converted)
# T1 sequence (P02768 25-609): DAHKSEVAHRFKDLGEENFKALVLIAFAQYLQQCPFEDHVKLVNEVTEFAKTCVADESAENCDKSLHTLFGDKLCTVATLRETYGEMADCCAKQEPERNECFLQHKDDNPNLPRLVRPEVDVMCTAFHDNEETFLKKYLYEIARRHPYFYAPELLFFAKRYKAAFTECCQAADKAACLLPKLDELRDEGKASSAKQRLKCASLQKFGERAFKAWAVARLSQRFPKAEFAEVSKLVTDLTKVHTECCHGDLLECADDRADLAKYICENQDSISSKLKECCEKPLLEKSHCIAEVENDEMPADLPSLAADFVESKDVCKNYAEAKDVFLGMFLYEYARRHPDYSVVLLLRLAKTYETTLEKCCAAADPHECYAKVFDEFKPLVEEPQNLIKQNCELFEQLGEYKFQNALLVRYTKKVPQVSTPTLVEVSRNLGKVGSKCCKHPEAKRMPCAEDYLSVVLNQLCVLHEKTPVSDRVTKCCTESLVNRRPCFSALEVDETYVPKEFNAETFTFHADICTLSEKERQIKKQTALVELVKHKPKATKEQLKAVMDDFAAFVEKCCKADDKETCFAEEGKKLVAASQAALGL
compound,measurement,value
O=S(=O)(CCCCl)CN1CCC2(CC1)OOC1(CCCC1)OO2 [TO1],Kd,16 µM
CCS(=O)(=O)CN1CCC2(CC1)OOC1(CCCCC1)OO2 [TO2],Kd,93.2 µM
